Tested on: P. chabaudi-infected mice
Assay: Peter's four-day suppressive test (chemosuppressive activity)
Type: in vivo, Swiss albino mice
Method: Following the encouraging in vitro antiplasmodial activities and cytotoxicity profiles reported above, as well as the ADMET properties of the primary and secondary hits identified in this study, studies were carried out to assess the in vivo efficacy of these compounds in laboratory mice. Chemosuppressive potentials were assessed using the Peter's four-day test whereas the ability of each compound to cure an established plasmodial infection was determined using the Rane's test. To assess the in vivo chemosuppressive potential of the compounds, groups of P. chabaudi-infected mice were treated by ip injection for 3 days following infection using fixed doses of 0.03, 0.3, 3, 10, or 30 mg/kg for each compound. The percent suppression of parasite growth in treated groups was calculated relative to the control group and the growth inhibition curves plotted.
Eight-week old male Swiss albino mice weighing approximately 23±3 g were housed in cages and maintained in a well-ventilated room under standard environmental conditions of temperature at 22-24° C., under a 12 h dark-light cycle, with food and water provided ad libitum.
The animals were allowed one week acclimation before commencement of the study. Three (3) mice were infected with stocked blood containing Plasmodium chabaudi parasites and used as donors. In brief, frozen blood containing the sulfadoxine/pyrimethamine resistant P. c. chabaudi (AS(50S/P) parasites was thawed and about 200 μL parasites were injected intra-peritoneally (i.p) into each of the three mice and parasitemia monitored through blood smear until a 20% threshold was reached. These infected animals then served as donors to the experimental animals. Ethical approval for the study was obtained from the University of Douala Institutional Review Board (N^oIEC-UD/1146/09/2017/A).
In vivo efficacies were conducted following a modification of the Peter's four-day suppressive test as previously described (Lee et al., 2014, Tarkang et al., 2014). Briefly, following parasite passage in donor mice, the mice were euthanized using diethyl ether and P. c. chabaudi infected blood was obtained by cardiac puncture and placed into heparinized tubes. The blood was then diluted with phosphate buffered saline (PBS) and immediately used to infect the experimental mice. Mice were randomly divided into seven (7) groups of 3 animals and each mouse was injected with 1×10^7 infected erythrocytes intraperitoneally (Day 0). The mice were kept for 24 hours to establish infection and Giemsa thin blood smears were prepared to quantify parasites (Day 1). Thereafter, groups 1, 2, 3, 4 and 5 were treated with compounds dissolved in 1×PBS, intraperitoneally at dosages of 30, 10, 3, 0.3 and 0.03 mg/kg body weight, respectively, while groups 6 and 7 were treated with vehicle or chloroquine at 10 mg/kg, respectively for three consecutive days (Day 1-Day 3). Twenty-four (24) and ninety-six (96) hours post-infection, thin blood smears were prepared from each animal with blood obtained from the tail vein, fixed in methanol and stained with 10% Giemsa.
Parasitemia was determined by light microscopy using a 100× objective lens and the following equation: […]
Average percentage chemosuppression was calculated as
Where A is mean parasitemia in negative control and B is mean parasitemia in test group

For `COc1cc2c(cc1OC)C1(NCC2)C(=O)Nc2ccc(Cl)cc21` (centres unmarked) [Compound 8b], the suppression of parasitemia (3.0 mg/kg ip) was 98% and the “suppressive ED50” value (ip, 3 days, P. chabaudi-infected mice) was 0.25 mg/kg.
